What was measured:
[1] = target: T1, beta-catenin-B-cell lymphoma 9 protein complex (Homo sapiens, UniProt P35222); assay: Inhibition of C-terminal 6-His-tagged beta-catenin (1 to 781 residues) (unknown origin) expressed in Escherichia coli BL21 (DE3)-N-terminal biotinylated human BCL9 (350 to 375 residues) protein-protein interaction incubated for 1 hr by Alphascreen assay
T1 sequence (P35222 whole entry): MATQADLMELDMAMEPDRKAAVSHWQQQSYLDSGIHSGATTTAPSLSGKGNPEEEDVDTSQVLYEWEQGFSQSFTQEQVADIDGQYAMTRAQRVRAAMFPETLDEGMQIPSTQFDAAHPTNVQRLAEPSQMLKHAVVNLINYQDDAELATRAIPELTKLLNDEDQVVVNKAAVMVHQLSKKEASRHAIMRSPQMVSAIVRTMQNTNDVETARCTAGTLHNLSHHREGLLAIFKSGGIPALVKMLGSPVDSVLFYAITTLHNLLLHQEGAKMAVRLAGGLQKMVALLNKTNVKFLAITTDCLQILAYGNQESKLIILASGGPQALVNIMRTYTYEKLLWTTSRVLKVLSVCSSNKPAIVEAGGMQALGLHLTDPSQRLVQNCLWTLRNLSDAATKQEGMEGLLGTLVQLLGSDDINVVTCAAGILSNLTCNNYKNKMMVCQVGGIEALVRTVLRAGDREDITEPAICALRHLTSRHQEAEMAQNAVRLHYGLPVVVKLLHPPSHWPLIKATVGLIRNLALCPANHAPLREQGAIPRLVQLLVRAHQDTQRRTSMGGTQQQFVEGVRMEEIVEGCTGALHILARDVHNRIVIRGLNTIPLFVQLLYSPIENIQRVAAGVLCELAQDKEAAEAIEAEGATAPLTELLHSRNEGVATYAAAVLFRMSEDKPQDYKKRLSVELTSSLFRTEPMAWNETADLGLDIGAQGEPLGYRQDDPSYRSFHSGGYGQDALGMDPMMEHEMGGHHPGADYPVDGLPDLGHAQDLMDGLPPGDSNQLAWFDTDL
T1 sequence (O00512 whole entry): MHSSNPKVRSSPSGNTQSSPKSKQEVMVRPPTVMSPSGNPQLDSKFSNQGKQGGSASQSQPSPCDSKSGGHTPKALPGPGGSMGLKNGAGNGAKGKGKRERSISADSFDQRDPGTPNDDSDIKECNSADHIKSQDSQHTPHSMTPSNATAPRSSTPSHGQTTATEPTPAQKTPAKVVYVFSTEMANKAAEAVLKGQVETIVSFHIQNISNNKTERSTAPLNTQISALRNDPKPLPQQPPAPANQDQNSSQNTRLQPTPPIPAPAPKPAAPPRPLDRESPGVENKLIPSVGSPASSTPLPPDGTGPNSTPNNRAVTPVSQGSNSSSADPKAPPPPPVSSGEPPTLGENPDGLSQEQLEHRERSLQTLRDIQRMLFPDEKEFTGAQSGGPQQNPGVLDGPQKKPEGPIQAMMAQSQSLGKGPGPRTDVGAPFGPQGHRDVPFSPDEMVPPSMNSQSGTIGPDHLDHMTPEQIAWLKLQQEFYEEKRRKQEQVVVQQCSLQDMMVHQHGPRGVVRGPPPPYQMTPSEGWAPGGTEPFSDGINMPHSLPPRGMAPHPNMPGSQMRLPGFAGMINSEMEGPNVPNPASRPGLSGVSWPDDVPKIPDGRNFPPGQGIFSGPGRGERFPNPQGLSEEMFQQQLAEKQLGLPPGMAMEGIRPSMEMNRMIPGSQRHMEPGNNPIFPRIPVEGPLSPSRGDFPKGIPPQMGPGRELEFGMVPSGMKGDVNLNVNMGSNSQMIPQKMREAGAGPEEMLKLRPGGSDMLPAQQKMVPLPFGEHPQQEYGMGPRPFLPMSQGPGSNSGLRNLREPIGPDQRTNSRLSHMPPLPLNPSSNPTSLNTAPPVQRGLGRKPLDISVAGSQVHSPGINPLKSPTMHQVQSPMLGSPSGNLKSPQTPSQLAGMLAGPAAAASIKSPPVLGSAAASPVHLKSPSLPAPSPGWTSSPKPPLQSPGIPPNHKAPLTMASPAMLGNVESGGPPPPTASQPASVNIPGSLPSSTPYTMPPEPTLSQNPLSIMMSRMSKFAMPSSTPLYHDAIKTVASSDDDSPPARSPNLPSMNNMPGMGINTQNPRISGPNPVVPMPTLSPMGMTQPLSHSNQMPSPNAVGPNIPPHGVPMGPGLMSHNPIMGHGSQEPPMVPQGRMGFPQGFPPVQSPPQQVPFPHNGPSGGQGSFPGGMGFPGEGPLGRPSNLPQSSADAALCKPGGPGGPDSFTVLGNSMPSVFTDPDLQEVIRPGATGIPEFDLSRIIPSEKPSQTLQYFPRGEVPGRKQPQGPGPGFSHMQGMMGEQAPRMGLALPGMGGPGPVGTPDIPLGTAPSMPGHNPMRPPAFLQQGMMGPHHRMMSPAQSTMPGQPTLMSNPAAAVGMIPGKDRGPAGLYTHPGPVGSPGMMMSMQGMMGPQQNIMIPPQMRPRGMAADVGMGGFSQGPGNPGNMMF

[2] = target: T1, beta-catenin-B-cell lymphoma 9 protein complex; assay: Inhibition of N-terminal 6-His-tagged beta-catenin (1 to 781 residues) (unknown origin) expressed in Escherichia coli BL21 (DE3)-N-terminal biotinylated human BCL9 (350 to 375 residues) protein-protein interaction incubated for 1 hr by Alphascreen assay
Catenin beta-1 = target: T2, Catenin beta-1 (Homo sapiens, UniProt P35222); assay: Inhibition of beta-catenin (unknown origin) transfected in HEK293 cells cotransfected with pCMV-RL assessed as reduction in luciferase activity measured after 24 hrs by TOPFlash luciferase reporter assay; format: cell-based
T2 sequence (P35222 whole entry): T1 sequence (P35222 whole entry)

MDA-MB-231 = assay: cells; conditions: Homo sapiens, MDA-MB-231, 72 h
Description: Antiproliferative activity against human MDA-MB-231 cells assessed as cell growth inhibition measured after 72 hrs by MTS assay

MDA-MB-468 = assay: cells; conditions: Homo sapiens, MDA-MB-468, 72 h
Description: Antiproliferative activity against human MDA-MB-468 cells assessed as cell growth inhibition measured after 72 hrs by MTS assay

SW480 = assay: cells; conditions: Homo sapiens, SW480, 72 h
Description: Antiproliferative activity against human SW480 cells assessed as cell growth inhibition measured after 72 hrs by MTS assay

HCT-116 = assay: cells; conditions: Homo sapiens, HCT-116, 72 h
Description: Antiproliferative activity against human HCT-116 cells assessed as cell growth inhibition measured after 72 hrs by MTS assay

MCF-10A = assay: cells; conditions: Homo sapiens, 72 h
Description: Cytotoxicity against human MCF-10A cells assessed as cell growth inhibition measured after 72 hrs by MTS assay

[3] = Half life in mouse liver microsomes at 1 uM measured up to 60 mins in presence of NADPH by LC-MS/SM analysis; format: ADME, Microsome; conditions: 1 h
[4] = Intrinsic clearance in mouse liver microsomes at 1 uM measured up to 60 mins in presence of NADPH by LC-MS/SM analysis; format: ADME, Microsome; conditions: 1 h
[5] = Half life in human liver microsomes at 1 uM measured up to 60 mins in presence of NADPH by LC-MS/SM analysis; format: ADME, Microsome; conditions: 1 h
[6] = Intrinsic clearance in human liver microsomes at 1 uM measured up to 60 mins in presence of NADPH by LC-MS/SM analysis; format: ADME, Microsome

SMILES	IC50 [1] [µM]	Ki [2] [µM]	other results
CC(C)(Oc1cccc(N2CCC[C@@H](C(=O)N(Cc3ccc(C4CCCCC4)cc3)C3CC3)C2)c1)C(=O)N1CCNCC1	5.3	4.8	–
Cn1cc(-c2ccc(CN(C(=O)[C@@H]3CCCN(c4cccc(OC(C)(C)C(=O)N5CCNCC5)c4)C3)C3CC3)cc2)cn1	76	68	–
CN1CCN(C(=O)C(C)(C)Oc2cccc(N3CCC[C@@H](C(=O)N(Cc4ccc(-c5cn[nH]c5)cc4)C4CC4)C3)c2)CC1	39	32	IC50 (Catenin beta-1): > 200 µM
CC(C)(Oc1cccc(N2CCC[C@@H](C(=O)N(Cc3ccc(-c4ccccn4)cc3)C3CC3)C2)c1)C(=O)N1CCNCC1	59	54	–
CC(C)c1ccc(CN(C(=O)[C@@H]2CCCN(c3cccc(OC(C)(C)C(=O)N4CCNCC4)c3)C2)C2CC2)cc1	3	2.7	–
CCOCCN(Cc1ccc(-c2cn[nH]c2)cc1)C(=O)[C@@H]1CCCN(c2cccc(OC(C)(C)C(=O)N3CCNCC3)c2)C1	2.1	1.9	–
CC(C)(Oc1cccc(N2CCC[C@@H](C(=O)N(Cc3ccc(C(C)(C)C)cc3)C3CC3)C2)c1)C(=O)N1CCNCC1	14	13	–
CC(C)(Oc1cccc(N2CCC[C@@H](C(=O)N(Cc3ccc(-c4cn[nH]c4)cc3)C3CC3)C2)c1)C(=O)N1CCCCC1	53	43	–
CC(C)(Oc1cccc(N2CCC[C@@H](C(=O)N(Cc3ccc(-c4cccnc4)cc3)C3CC3)C2)c1)C(=O)N1CCNCC1	73	66	–
Cc1cc(-c2ncc(CC(=O)Nc3ccc(-c4cnccn4)cn3)cc2C)ccn1 [WNT-974]	–	–	IC50 (MDA-MB-231): > 100 µM; IC50 (MDA-MB-468): > 100 µM; IC50 (SW480): > 100 µM; IC50 (HCT-116): > 100 µM; IC50 (MCF-10A): > 100 µM
CCN(CC)CCNC(=O)c1c(C)[nH]c(/C=C2\C(=O)Nc3ccc(F)cc32)c1C [SUNITINIB]	–	–	t1/2 [3]: 13 min; CLint [4]: 53 µL/min/mg
CCN(Cc1ccc(-c2cn[nH]c2)cc1)C(=O)[C@@H]1CCCN(c2cccc(OC(C)(C)C(=O)N3CCNCC3)c2)C1.Cl	–	–	t1/2 [5]: 28.3 min; t1/2 [3]: 7.7 min; CLint at 1 h, 1 µM [6]: 24 µL/min/mg; CLint [4]: 90 µL/min/mg
CCN(Cc1ccc(C(C)C)cc1)C(=O)[C@@H]1CCCN(c2cccc(OC(C)(C)C(=O)N3CCNCC3)c2)C1	12	11	–
CC(C)(Oc1cccc(N2CCC[C@@H](C(=O)N(Cc3ccc(-c4ccsc4)cc3)C3CC3)C2)c1)C(=O)N1CCNCC1	5.5	5	–
CC(C)c1ccc(CNC(=O)[C@H]2CCCN(c3cccc(OC(C)(C)C(=O)O)c3)C2)cc1	> 100	> 90	–
O=C1[C@H](Cc2ccc(O)cc2)N2C(=O)CCN(C(=O)NCc3ccccc3)[C@H]2CN1Cc1cccc2ccccc12	–	–	IC50 (MDA-MB-231): 7.2 µM; IC50 (MDA-MB-468): 31 µM; IC50 (SW480): 6.1 µM; IC50 (HCT-116): 38 µM; IC50 (MCF-10A): 21 µM
CC(C)c1ccc(CNC(=O)[C@@H]2CCCN(c3cccc(OC(C)(C)C(=O)N4CCNCC4)c3)C2)cc1	6.4	5.8	–
CC(C)c1ccc(CNC(=O)[C@@H]2CCCN(c3cccc(OC(C)(C)C(=O)O)c3)C2)cc1	51	46	–
CC(C)(Oc1cccc(N2CCC[C@@H](C(=O)N(Cc3ccc(-c4ccccc4)cc3)C3CC3)C2)c1)C(=O)N1CCNCC1	4.5	4	–
CC(C)c1ccc(CN(C(=O)[C@@H]2CCCN(c3cccc(OC(C)(C)C(=O)N4CCNCC4)c3)C2)C(C)C)cc1	5.1	4.6	–
CC(C)(Oc1cccc(N2CCC[C@@H](C(=O)N(Cc3ccc(-c4ccn[nH]4)cc3)C3CC3)C2)c1)C(=O)N1CCNCC1	8.9	8	–
CC(C)(Oc1cccc(N2CCC[C@@H](C(=O)N(Cc3ccc(-c4ccncc4)cc3)C3CC3)C2)c1)C(=O)N1CCNCC1	82	74	–
CC(C)c1ccc(CN(C)C(=O)[C@@H]2CCCN(c3cccc(OC(C)(C)C(=O)N4CCNCC4)c3)C2)cc1	15	14	–

From ChEMBL document CHEMBL4840323, “Discovery of an Orally Bioavailable Small-Molecule Inhibitor for the β-Catenin/B-Cell Lymphoma 9 Protein-Protein Interaction” (J Med Chem, 2021)
